Experimental data from patent US12357697B2, “Pharmaceutical compositions comprising bupropion and cysteine” (AXSOME THERAPEUTICS, INC., priority 2022, dated 2025).
Counter-ions that a name gives are not always drawn. Like-named read-outs stand apart in the source and are kept apart here.

Assays:
[1] = not given; remark: listed apart in the source

## CC(NC(C)(C)C)C(=O)c1cccc(Cl)c1 (stereo not shown) [AB, bupropion hydrochloride]
8 weeks
  stability / compatibility of bupropion hydrochloride (in words): stable for the entire 8 weeks
25° C./60% RH, 4 wks
  ASSAY: 97.6
  TOTAL RS > LOQ: <LOQ
25° C./60% RH, 8 wks
  ASSAY: 100.2
  TOTAL RS > LOQ: 0.13
40° C./75% RH, 2 wks
  ASSAY: 100.4
  TOTAL RS > LOQ: 0.43
40° C./75% RH, 4 wks
  ASSAY: 99.3
  TOTAL RS > LOQ: 0.94
40° C./75% RH, 8 wks
  ASSAY: 101.3
  TOTAL RS > LOQ: 1.16
50° C./ambient, 2 wks
  ASSAY: 100.6
  TOTAL RS > LOQ: 0.14
T = 0 (initial)
  ASSAY: 100.4
  TOTAL RS > LOQ: <LOQ

## COc1ccc2c(c1)[C@]13CCCC[C@@H]1[C@H](C2)N(C)CC3 [AD, dextromethorphan hydrobromide monohydrate]
[1]; 25° C./60% RH, 4 wks
  ASSAY: 102.5
  TOTAL RS: 0.25
[1]; 25° C./60% RH, 8 wks
  ASSAY: 100.2
  TOTAL RS: 0.20
[1]; 40° C./75% RH, 4 wks
  ASSAY: 101.5
  TOTAL RS: 0.18
[1]; 40° C./75% RH, 8 wks
  ASSAY: 100.1
  TOTAL RS: 0.72
[1]; T = 0 (initial)
  ASSAY: 101.4
  TOTAL RS: 0.21
